Assay results published in patent US11001561B2, “Pyrimidinone derivatives as SHP2 antagonists” (MERCK PATENT GMBH, priority 2019, dated 2021).
pIC50: −log10 of the molar value. Like-named read-outs stand apart in the source and are kept apart here.

Columns and labels:
[1] = molecular target: Full length SHP2 protein (Recombinant Human SHP-2) (Homo sapiens (Human), UniProt Q06124); assay: SHP2 biochemical assay (DiFMUP substrate, activating peptide IRSI_2pY); settings: activating peptide IRSI_2pY 140 nM, DiFMUP, 60 min; for IC50: SHP-2 biochemical assay IC50 (μM); for pIC50: read-out: SHP-2 biochemical assay IC50
Method: The inhibition of SHP2 by compounds of the invention was monitored using the surrogate substrate DiFMUP after protein activation by a peptide bearing two appropriately spaced phosphotyrosine. […] The generation of the DiFMU product by activated SHP2 was monitored through Fluorescence measurement with a PerkinElmer Envision reader. The inhibitor dose response curves were analyzed with Genedata Screener.

[2] = test system: pERK1/2 in KYSE520 cells; assay: p-Erk cellular assay in KYSE520 (Mesoscale); format: cell-based; settings: read-out: pERK1/2 in Cell KYSE520 IC50
Method: p-Erk Cellular Assay in KYSE520: The effect of SHP2 inhibitors on pERK level was assessed using phospho-specific antibody using Mesoscale quantification platform. For measuring change in pERK levels using mesoscale, 30,000 cells of KYSE520 cells were plated in 96-well tissue culture treated plate in 175 μl volume of media. After an overnight incubation at 37° C., various SHP2 inhibitors were added in different concentration to each well maintaining duplicate wells across plates and incubated with compounds for 2 h at 37° C. followed by a wash with ice cold PBS buffer. The cells were then lysed in lysis buffer and processed and analyzed for p-ERK/ERK as per manufacturer's instructions (Mesoscale discovery, cat No. […]-3).

Row | pIC50 [1] | pIC50 ([2]; Homo sapiens, KYSE-520, 2 h) | Compound | IC50 [1] [µM] | pIC50 ([2]; 2 h)
1 | – | – | Cc1c(N2CCC3(CC2)Cc2ccccc2[C@H]3N)nc(C)n(-c2cccc(Cl)c2Cl)c1=O (atropisomer, axis not shown) [Compound 74b, (3P)-6-[(1S)-1-amino-1,3-dihydrospiro[indene-2,4′-piperidin]-1′-yl]-3-(2,3-dichlorophenyl)-2,5-dimethyl-3,4-dihydropyrimidin-4-one] | 0.026 | 6.20
2 | – | 5.37 | Cc1nc(N2CCC(C)(N)CC2)cc(=O)n1-c1cccc(Cl)c1Cl (single isomer, unassigned) [Compound 2b, (3M)-6-(4-amino-4-methylpiperidin-1-yl)-3-(2,3-dichlorophenyl)-2-methyl-3,4-dihydropyrimidin-4-one] | – | –
3 | – | – | [2H]C([2H])([2H])c1c(N2CCC3(CC2)CO[C@@H](C)[C@H]3N)nc(C)n(-c2cccc(Cl)c2Cl)c1=O (single isomer, unassigned) [Compound 63b] | 0.015 | 6.75
4 | – | – | Cc1c(N2CCC3(CC2)Oc2cnccc2[C@@H]3N)nc(C)n(-c2cccc(Cl)c2Cl)c1=O (single isomer, unassigned) [Compound 80b] | > 10 | 4.80
5 | 9.10 | 8.30 | Cc1nc(N2CCC3(CC2)Cc2ccccc2[C@H]3N)cc(=O)n1-c1cccc(Cl)c1Cl (single isomer, unassigned) [Compound 119b] | – | –
6 | – | 5.25 | Cc1nc(N2CCC(C)(N)CC2)cc(=O)n1-c1cccc(Cl)c1Cl [Compound 2, 6-(4-amino-4-methylpiperidin-1-yl)-3-(2,3-dichlorophenyl)-2-methyl-3,4-dihydropyrimidin-4-one] | – | –
7 | 6.12 | 4.84 | C[C@@H]1OCC2(CCN(c3cc(=O)n(-c4cccc(Cl)c4Cl)c(N)n3)CC2)[C@@H]1N [Compound 5, 2-amino-6-[(3S,4S)-4-amino-3-methyl-2-oxa-8-azaspiro[4.5]decan-8-yl]-3-(2,3-dichlorophenyl)-3,4-dihydropyrimidin-4-one] | – | –
8 | 6.43 | 5.88 | Cc1c(N2CCC(C)(CN)CC2)nc(C)n(-c2cccc(Cl)c2Cl)c1=O [Compound 18, 6-[4-(aminomethyl)-4-methylpiperidin-1-yl]-3-(2,3-dichlorophenyl)-2,5-dimethyl-3,4-dihydropyrimidin-4-one] | – | –
9 | 6.42 | 5.64 | Cc1nc(N2CCC(N)(CCO)CC2)cc(=O)n1-c1cccc(Cl)c1Cl [Compound 26, 6-[4-amino-4-(2-hydroxyethyl)piperidin-1-yl]-3-(2,3-dichlorophenyl)-2-methyl-3,4-dihydropyrimidin-4-one] | – | –
10 | 6.29 | 5.56 | Cc1nc(N2CCC(N)(CO)CC2)cc(=O)n1-c1cccc(Cl)c1Cl [Compound 29, 6-[4-amino-4-(hydroxymethyl)piperidin-1-yl]-3-(2,3-dichlorophenyl)-2-methyl-3,4-dihydropyrimidin-4-one] | – | –
11 | 6.25 | 6.22 | Cc1nc(N2CCC3(CCC3N)CC2)cc(=O)n1-c1cccc(Cl)c1Cl (stereo not shown) [Compound 35, 6-{1-amino-7-azaspiro[3.5]nonan-7-yl}-3-(2,3-dichlorophenyl)-2-methyl-3,4-dihydropyrimidin-4-one] | – | –
12 | – | – | [2H]C([2H])([2H])c1c(N2CCC3(CC2)CO[C@@H](C)[C@H]3N)nc(C)n(-c2cccc(Cl)c2Cl)c1=O [Compound 63, 6-[(3S,4S)-4-amino-3-methyl-2-oxa-8-azaspiro[4.5]decan-8-yl]-3-(2,3-dichlorophenyl)-5-(^2H3)methyl-2-methyl-3,4-dihydropyrimidin-4-one] | 0.039 | 6.33
13 | – | – | Cc1c(N2CCC3(CC2)c2ncccc2C[C@H]3N)nc(C)n(-c2cccc(Cl)c2Cl)c1=O [Compound 75, (3M)-6-[(6R)-6-amino-5,6-dihydrospiro[cyclopenta[b]pyridine-7,4′-piperidin]-1′-yl]-3-(2,3-dichlorophenyl)-2,5-dimethyl-3,4-dihydropyrimidin-4-one] | – | 6.08
14 | 5.92 | – | Cc1c(N2CCCC(C)(CN)CC2)nc(C)n(-c2cccc(Cl)c2Cl)c1=O (stereo not shown) [Compound 107, (3M)-6-[4-(aminomethyl)-4-methylazepan-1-yl]-3-(2,3-dichlorophenyl)-2,5-dimethyl-3,4-dihydropyrimidin-4-one] | – | –
15 | 5.85 | – | Cc1c(N2CCC(C)(CN)CC2)nc(N)n(-c2cccc(Cl)c2Cl)c1=O [Compound 114, 2-Amino-6-(4-aminomethyl-4-methyl-piperidin-1-yl)-3-(2,3-dichloro-phenyl)-5-methyl-3H-pyrimidin-4-one] | – | –
16 | 5.42 | – | Cc1c(N2CCCC(N)(CC(C)O)CC2)nc(C)n(-c2cccc(Cl)c2Cl)c1=O (stereo not shown) [Compound 115, (3M)-6-[4-amino-4-(2-hydroxypropyl)azepan-1-yl]-3-(2,3-dichlorophenyl)-2,5-dimethyl-3,4-dihydropyrimidin-4-one] | – | –

Row | Compound | pIC50 [1] | pIC50 ([2]; Homo sapiens, KYSE-520, 2 h) | IC50 [1] [µM] | pIC50 ([2]; 2 h)
17 | Cc1c(N2CCC3(CC2)C[C@H](C)C[C@H]3N)nc(C)n(-c2cccc(Cl)c2Cl)c1=O (atropisomer, axis not shown) [Compound 111a, (3M)-6-[(1R,3S)-1-amino-3-methyl-8-azaspiro[4.5]decan-8-yl]-3-(2,3-dichlorophenyl)-2,5-dimethyl-3,4-dihydropyrimidin-4-one] | 7.03 | 6.14 | – | –
18 | Cc1nc(N2CCC3(CC2)CO[C@@H](C)[C@H]3N)nc(=O)n1-c1cccc(Cl)c1Cl (single isomer, unassigned) [Compound 37a] | 5.96 | 4.95 | – | –
19 | Cc1nc(N2CCC3(CCC[C@H]3N)CC2)cc(=O)n1-c1cccc(Cl)c1Cl (single isomer, unassigned) [Compound 62b] | – | 6.28 | 0.081 | –
20 | Cc1c(N2CCC3(CCC[C@H]3N)CC2)nc(N)n(-c2cccc(Cl)c2Cl)c1=O (single isomer, unassigned) [Compound 78d] | – | 5.88 | 0.19 | –
21 | Cc1c(N2CCC3(CC2)Oc2cnccc2[C@H]3N)nc(C)n(-c2cccc(Cl)c2Cl)c1=O (single isomer, unassigned) [Compound 80a] | – | < 5.00 | 1.4 | –
22 | Cc1nc(N2CCC3(CCC[C@H]3N)CC2)cc(=O)n1-c1cccc(Cl)c1Cl [Compound 27, 6-{(R)-1-amino-8-azaspiro[4.5]decan-8-yl}-3-(2,3-dichlorophenyl)-2-methyl-3,4-dihydropyrimidin-4-one] | 7.29 | 6.62 | – | –
23 | Cc1c(N2CCC3(CCC[C@H]3N)CC2)nc(C)n(-c2cccc(Cl)c2Cl)c1=O [Compound 67b, (3M)-6-[(1R)-1-amino-8-azaspiro[4.5]decan-8-yl]-3-(2,3-dichlorophenyl)-2,5-dimethyl-3,4-dihydropyrimidin-4-one] | 7.39 | – | – | 6.70
24 | Cc1c(N2CCC3(CC2)Oc2ncccc2[C@@H]3N)nc(C)n(-c2cccc(Cl)c2Cl)c1=O [Compound 79b, (3M)-6-[(3S)-3-amino-3H-spiro[furo[2,3-b]pyridine-2,4′-piperidin]-1′-yl]-3-(2,3-dichlorophenyl)-2,5-dimethylpyrimidin-4-one] | – | 6.99 | 0.006 | –
25 | (3M)-6-[(3aR,6aS)-3a-(aminomethyl)-5- (hydroxymethyl)- octahydrocyclopenta[c]pyrrol-2-yl]-3- (2,3-dichlorophenyl)-2,5-dimethyl-3,4- dihydropyrimidin-4-one [Compound 101] | 6.64 | – | – | –
